Data reported in patent US20240041828A1, “Combination Therapeutics Comprising Nrf2 Agonists and Antivirals for Treating Viral Infections” (The Regents of the University of California, priority 2022, published 2024).
pIC50: −log10 of the molar value. Entries after “also recorded” stand apart in the source; their conditions may differ. Structures can show the parent of a compound that is named as a salt. Where two headings read alike, the source gives them in different places.

Tests used:
Type in all cases: cell-based
[1] = system: B.1.617.2 (Delta) SARS-CoV-2 variant; experiment: microbe, parasite or virus in culture; settings: for pIC50: Severe acute respiratory syndrome coronavirus 2, A549
[2] = system: SARS-coV-2 Omicron variant
[3] = system: B.1.617.2 (Delta) SARS-CoV-2 variant

| Compound | pIC50 [1] | IC50 compared to comparator drug [2] | better antiviral effect in ALI HAE system compared to Paxlovid ([2]; ALI HAE system) | anti-SARS-CoV-2 activity (words, figure legend) ([2]; methanesulfonate) | drug interaction (words, figure legend) ([3]; methanesulfonate) | IC50 compared to comparator drug ([1]; methanesulfonate) | anti-SARS-CoV-2 activity (words, figure legend) ([1]; methanesulfonate) | anti-SARS-CoV-2 activity (words, figure legend) [2] | drug interaction (words, figure legend) [3] | IC50 compared to comparator drug [1] | anti-SARS-CoV-2 activity (words, figure legend) [1] |
| --- | --- | --- | --- | --- | --- | --- | --- | --- | --- | --- | --- |
| CC(C)C(=O)OC[C@H]1O[C@@H](n2ccc(NO)nc2=O)[C@H](O)[C@@H]1O [molnupiravir, Molnupiravir] | 4.51 | – | – | – | – | – | – | – | – | – | – |
| COC1=C(OC)C(=O)C(CCCCCCCCCC[P+](c2ccccc2)(c2ccccc2)c2ccccc2)=C(C)C1=O.CS(=O)(=O)[O-] [Mito-MES, 10-(4,5-dimethoxy-2-methyl-3,6-dioxo-1,4-cyclohexadienyl) decyl triphenylphosphonium methanesulfonate] | 6.84 | higher than Paxlovid™ IC50 | about 1000 fold | stronger anti-SARS-CoV-2 activity in multilayer human airway cell culture than Paxlovid™; also recorded: stronger anti-SARS-CoV-2 activity in multilayer human airway cell culture than molnupiravir | additive anti-SARS-CoV-2 activity with Paxlovid™; also recorded: additive anti-SARS-CoV-2 activity with molnupiravir | higher IC50 compared to molnupiravir | strong anti-SARS-CoV-2 activity in single layer human airway cells that is similar to Paxlovid™; also recorded: strong anti-SARS-CoV-2 activity in single layer human airway cells that is higher than molnupiravir | – | – | – | – |
| COC(=O)/C=C/C(=O)OC [DMF, Dimethyl fumarate] | 4.78 | IC50 that was similar to Paxlovid™; also recorded: higher than molnupiravir IC50 | – | – | – | – | – | stronger anti-SARS-CoV-2 activity in multilayer human airway cell culture than molnupiravir | additive anti-SARS-CoV-2 activity with Paxlovid™; also recorded: additive anti-SARS-CoV-2 activity with molnupiravir | higher IC50 compared to Paxlovid™; also recorded: higher IC50 compared to molnupiravir | anti-SARS-CoV-2 activity in single layer human airway cells that is lower than Paxlovid™; also recorded: strong anti-SARS-CoV-2 activity in single layer human airway cells that is higher than molnupiravir |
